# Test results published in patent US9890133B2 (priority 2011, dated 2018).
# Read-outs that look alike come from different tables or passages of the source.
# Experiments:
# [1] = cited from earlier work; for bioavailability / metabolization and excretion: in vivo
# [2] = cited from earlier work
# [3] = test system: 48 rhinovirus types and coxsackievirus A21, B3, enterovirus 70 and echovirus 11; conditions: cell culture; cited from earlier work
# Rhino 45 = test: Multicycle CPE reduction assay, Rhino 45; assay type: cell-based; conditions: incubation at 37° C. in HeLa cells
# Method: (§1) The test compounds were evaluated for anti-picornavirus activity by a multicycle cytopathic effect (CPE) reduction assay. The antiviral activity was initially determined using an MTS [3-(4,5-dimethylthiazol-2-yl)-5-(3-carboxymethoxyphenyl)-2-(4-sulfophenyl-2H-tetrazolium]-based CPE reduction assay.
# (§2) In this regard, cells grown to confluence in 96-well plates were infected with 100 50% cell culture infective doses (CCID50) of virus. After an adsorption period of 2 hrs at 37° C., virus was removed and serial dilutions of the compounds were added. […] After removal of the medium, 90 μl of a culture medium and 10 μl of MTS-phenazine methosulfate (Promega, Leiden, The Netherlands) were added to each well. After an incubation period of 2 hrs at 37° C., the optical density (OD) of each well was read at 498 nm in a microplate reader.
# (§3) CPE values for evaluating antiviral activity were calculated using the following Mathematic Formula 3: […]
# (§4) The 50% effective concentration (EC50) and the 50% cytotoxic concentration (CC50) were defined as the concentrations of compound that offered 50% protection against virus-induced CPE and that killed cells by 50%, respectively, and were calculated using logarithmic interpolation.
# Rhino 86 = test: Multicycle CPE reduction assay, Rhino 86; assay type: cell-based; conditions: incubation at 37° C. in HeLa cells
# Method: as §1, §2, §3, §4
# Polio 3 = test: organism not typed; assay type: cell-based; conditions: BGM, read-out: Polio 3 EC50
# Rhino 41 = test: Multicycle CPE reduction assay, Rhino 41; assay type: cell-based; conditions: incubation at 37° C. in HeLa cells
# Method: as §1, §2, §3, §4
# Rhino 89 = test: Multicycle CPE reduction assay, Rhino 89; assay type: cell-based; conditions: HeLa, read-out: Rhino 89 EC50
# Method: as §1, §2, §3, §4
# Rhino 42 = test: Multicycle CPE reduction assay, Rhino 42; assay type: cell-based; conditions: incubation at 37° C. in HeLa cells
# Method: as §1, §2, §3, §4
# Rhino 72 = test: Multicycle CPE reduction assay, Rhino 72; assay type: cell-based; conditions: incubation at 37° C. in HeLa cells
# Method: as §1, §2, §3, §4
# Rhino 70 = test: Multicycle CPE reduction assay, Rhino 70; assay type: cell-based
# Method: as §1, §2, §3, §4
# Entero 71 = test: Multicycle CPE reduction assay, Entero 71; assay type: cell-based; conditions: incubation at 37° C. in RD cells
# Method: as §1, §2, §3, §4
# in vitro = conditions: human
# Rhino 15 = test: Multicycle CPE reduction assay, Rhino 15; assay type: cell-based; conditions: incubation at 37° C. in HeLa cells
# Method: as §1, §2, §3, §4
# Rhino 63 = test: Multicycle CPE reduction assay, Rhino 63; assay type: cell-based; conditions: incubation at 37° C. in HeLa cells
# Method: as §1, §2, §3, §4
# Rhino 59 = test: Multicycle CPE reduction assay, Rhino 59; assay type: cell-based; conditions: incubation at 37° C. in HeLa cells
# Method: as §1, §2, §3, §4
# Echo 11 = test: Multicycle CPE reduction assay, Echo 11; assay type: cell-based; conditions: BGM, read-out: Echo 11 EC50
# Method: as §1, §2, §3, §4
# Rhino 9 = test: Multicycle CPE reduction assay, Rhino 9; assay type: cell-based; conditions: incubation at 37° C. in HeLa cells
# Method: as §1, §2, §3, §4
# Coxsackie A9 = test: Multicycle CPE reduction assay, Coxsackie A9; assay type: cell-based; conditions: incubation at 37° C. in BGM cells
# Method: as §1, §2, §3, §4
# [4] = Cytotoxicity (CC50), MTS-based assay (Experimental Example 2); assay type: cell-based
# Method: as §1, §2
# CPE values for evaluating cytotoxicity were calculated using the following Mathematic Formula 4: […]
# as §4
# Polio 1 = test: organism not typed; assay type: cell-based; conditions: BGM, read-out: Polio 1 EC50
# Rhino 2 = test: Multicycle CPE reduction assay, Rhino 2; assay type: cell-based; conditions: incubation at 37° C. in HeLa cells
# Method: as §1, §2, §3, §4
# Rhino 29 = test: Multicycle CPE reduction assay, Rhino 29; assay type: cell-based; conditions: incubation at 37° C. in HeLa cells
# Method: as §1, §2, §3, §4
# Polio 2 = test: organism not typed; assay type: cell-based; conditions: BGM, read-out: Polio 2 EC50
# Rhino 39 = test: Multicycle CPE reduction assay, Rhino 39; assay type: cell-based; conditions: incubation at 37° C. in HeLa cells
# Method: as §1, §2, §3, §4
# Rhino 85 = test: Multicycle CPE reduction assay, Rhino 85; assay type: cell-based; conditions: incubation at 37° C. in HeLa cells
# Method: as §1, §2, §3, §4
# Coxsackie A24(HG) = test: CPE inhibition assay, Coxsackie A24(HG); assay type: cell-based; conditions: MRC5, 48 h; MRC-5, 37° C., 2 days, FDA
# Coxsackie A24(DN) = test: CPE inhibition assay, Coxsackie A24(DN); assay type: cell-based; conditions: MRC5, 48 h; MRC-5, 37° C., 2 days, FDA
# Poliovirus 3 = test: microbe, parasite or virus in culture; assay type: cell-based; conditions: Enterovirus C
# Echo 9 = test: Multicycle CPE reduction assay, Echo 9; assay type: cell-based
# Method: as §1, §2, §3, §4
# Coxsackie A21 = test: Multicycle CPE reduction assay, Coxsackie A21; assay type: cell-based; conditions: MRC5; incubation at 37° C. in MRC-5 cells
# Method: as §1, §2, §3, §4
# Coxsackie A16 = test: Multicycle CPE reduction assay, Coxsackie A16; assay type: cell-based; conditions: MRC5; incubation at 37° C. in MRC-5 cells
# Method: as §1, §2, §3, §4
# [5] = clinical studies; cited from earlier work
# [6] = in vivo; cited from earlier work
# Rhino 14 = test: Multicycle CPE reduction assay, Rhino 14; assay type: cell-based; conditions: incubation at 37° C. in HeLa cells
# Method: as §1, §2, §3, §4
# rhinovirus infections = conditions: treatment of rhinovirus infections; cited from earlier work
# [7] = test system: mock-infected cells (HeLa, MRC-5, RD); conditions: human
# [8] = HeLa, read-out: Rhino 70 EC50, incubation at 37° C. in HeLa cells
structure (smiles),measurement,setting,value
"CCC(=O)C(CCCCCCOc1ccc(OC)cc1Cl)C(=O)CC [arildone, Arildone]",bioavailability,[1],low bioavailability
same,solubility,[2],poor solubility
CCOC(=O)/C=C/[C@H](C[C@@H]1CCNC1=O)NC(=O)[C@@H](CC(=O)[C@@H](NC(=O)c1cc(C)on1)C(C)C)Cc1ccc(F)cc1 [AG 7088],concentration range with antiviral effect,[3],nanomolar concentration range
Cc1cc(CCCCCCCOc2ccc(C3=NCCO3)cc2)on1 [disoxaril],bioavailability,[1],low bioavailability
same,metabolization and excretion,[1],rapid metabolization and excretion
"CC(=O)NC12C(=O)c3ccccc3C1(O)Oc1cc(C(C)C)ccc12 (stereo not drawn) [Example 66, N-(4b-Hydroxy-7-isopropyl-10-oxo-4b,10-dihydro-5-oxa-indeno[2,1-a]inden-9b-yl)-acetamide]",EC50,Rhino 45; HeLa,1700 ± 460 nM
same,EC50,Rhino 86,0.07 ± 0.0066 µM
same,EC50,Polio 3,580 ± 6.9 nM
same,EC50,Rhino 41,600 ± 26 nM
same,EC50,Rhino 89,630 ± 23 nM
same,EC50,Rhino 42,150 ± 23 nM
same,EC50,Rhino 72,130 ± 69 nM
same,EC50,Rhino 70; [8],57 ± 17 nM
same,EC50,Entero 71,25 ± 0.92 nM
same,CC50,in vitro; Picorana CC50,44.7 µg/mL
same,EC50,Rhino 15,4.6 ± 1.3 µM
same,EC50,Rhino 63,> 10 µM
same,EC50,Rhino 59,> 10 µM
same,EC50,Echo 11,7.2 ± 0.18 nM
same,EC50,Rhino 9,2.3 ± 0.7 µM
same,EC50,Coxsackie A9,8.3 ± 0.43 nM
same,CC50 at 3 days,[4],> 100 µM
same,EC50,Polio 1,690 ± 170 nM
same,EC50,Rhino 2,5.9 ± 0.25 µM
same,EC50,Rhino 29,6.4 ± 0.83 µM
same,EC50,Polio 2,230 ± 20 nM
same,EC50,Rhino 39,1800 ± 370 nM
same,EC50,Rhino 85,> 5.8 µM
"CC(=O)O[C@@]12Oc3cc(C(C)C)ccc3[C@]1(OC(C)=O)C(=O)c1c(N)cccc12 [Example 47, 1-Amino-7-isopropyl-10-oxo-9b,10-dihydro-4bH-benzo[d]indeno[1,2-b]furane-4b,9b-diyl diacetate]",CC50,in vitro,15.4 µg/mL
same,EC50,Coxsackie A24(HG),< 0.01 µg/mL
same,EC50,Coxsackie A24(DN),0.055 µg/mL
same,melting point,,220 to 223 °C
same,EC50,"Poliovirus 3; HeLa37, 48 h, read-out: Poliovirus 3 EC50",< 0.1 µg/mL
same,EC50,Poliovirus 3; read-out: Poliovirus3 EC50,< 0.1 µg/mL
"CC(C)c1ccc2c(c1)OC1(O)c3ccccc3C(=O)C21O (stereo not drawn) [Example 10, 4b,9b-Dihydroxy-7-isopropyl-4bH-benzo[d]indeno[1,2-b]furan-10(9bH)-one]",EC50,Rhino 45; HeLa,3400 ± 1500 nM
same,EC50,Rhino 86,8 ± 2.9 µM
same,EC50,Polio 3,1000 ± 570 nM
same,EC50,Rhino 41,8800 ± 120 nM
same,EC50,Rhino 89,> 50000 nM
same,EC50,Rhino 42,> 50000 nM
same,EC50,Rhino 72,5300 ± 1200 nM
same,EC50,Rhino 70; [8],2400 ± 360 nM
same,EC50,Entero 71,12 ± 2 nM
same,CC50,in vitro,18.4 µg/mL
same,CC50,in vitro; Picorana CC50,14.2 µg/mL
same,EC50,Rhino 15,> 50 µM
same,EC50,Rhino 63,> 50 µM
same,EC50,Echo 11,21 nM
same,EC50,Rhino 9,> 50 µM
same,CC50 at 3 days,[4],> 100 µM
same,EC50,"Echo 9; MRC5, incubation at 37° C. in MRC-5 cells, read-out: Echo 9 EC50",25 ± 5.7 nM
same,EC50,Coxsackie A21,1100 ± 580 nM
same,melting point,,195 to 198 °C
same,EC50,Polio 1,750 ± 370 nM
same,EC50,Rhino 2,> 50 µM
same,EC50,Rhino 29,> 50 µM
same,EC50,Coxsackie A16,90 ± 35 nM
same,EC50,Polio 2,360 ± 150 nM
same,EC50,Rhino 39,> 50000 nM
same,EC50,Rhino 85,> 50 µM
CC(C)S(=O)(=O)n1c(N)nc2ccc(/C(=N/O)c3ccccc3)cc21 [Enviroxime],pharmacokinetics,[5],bad pharmacokinetics
same,side effects,[5],unwanted side effects
same,therapeutic effects,[5],insignificant or few therapeutic effects
Cc1cc(CCCCCOc2c(Cl)cc(C3=NCCO3)cc2Cl)on1 [WIN 54954],side effects,[6],skin rash
same,metabolization and excretion,[1],rapid metabolization and excretion
"CC(C)c1ccc2c(c1)O[C@@]1(O)c3cccc(N)c3C(=O)[C@@]21O [Example 46, 1-Amino-4b,9b-dihydroxy-7-isopropyl-4bH-benzo[d]indeno[1,2-b]furan-10(9bH)-one]",EC50,Rhino 45; HeLa,≤ 78 nM
same,EC50,Rhino 45; listed as Ex. 46,< 78 nM
same,EC50,Polio 3,43 ± 17 nM
same,EC50,Rhino 41,470 ± 36 nM
same,EC50,Rhino 89,340 ± 860 nM
same,EC50,"Rhino 70; HeLa, incubation at 37° C. in HeLa cells, read-out: Rhino 70 EC50",≤ 78 nM
same,EC50,"Rhino 70; read-out: Rhino 70 EC50, incubation at 37° C. in HeLa cells, listed as Ex. 46",> 78 nM
same,EC50,Entero 71,3.1 nM
same,CC50,in vitro,18.3 µg/mL
same,CC50,in vitro; Picorana CC50,9.42 µg/mL
same,EC50,Rhino 15,2.8 ± 0.26 µM
same,EC50,Rhino 63,8.5 ± 0.13 µM
same,EC50,Echo 11,2.3 ± 0.88 nM
same,EC50,Rhino 9,3.5 ± 0.15 µM
same,EC50,Coxsackie A9,1.7 nM
same,CC50 at 3 days,[4],> 100 µM
same,EC50,"Echo 9; MRC5, read-out: Echo 9 EC50",3.5 nM
same,EC50,Rhino 14,< 10 nM
same,melting point,,180 to 182 °C
same,EC50,Polio 1,68 nM
same,EC50,Poliovirus 3; read-out: Poliovirus3 EC50,< 0.01 µg/mL
same,EC50,Rhino 2,> 10 µM
same,EC50,Rhino 29,4.6 ± 0.72 µM
same,EC50,Polio 2,18 ± 1.9 nM
same,EC50,Rhino 39,3000 ± 170 nM
same,EC50,Rhino 85,6.2 ± 0.7 µM
"Cc1cc(CCCOc2c(C)cc(-c3noc(C(F)(F)F)n3)cc2C)on1 [Pleconaril, pleconaril]",side effects,rhinovirus infections,side effects were observed
same,therapy success,rhinovirus infections,therapy success was too low
same,oral bioavailability,[1]; oral,very good oral bioavailability
"CC(C)c1ccc2c(c1)OC1(O)c3cccc(N)c3C(=O)C21NC(=O)c1[nH]nc2ccccc12 (stereo not drawn) [Example 288, N-(1-Amino-4b-hydroxy-7-isopropyl-10-oxo-9b,10-dihydro-4bH-benzo[d]indeno[1,2-b]furan-9b-yl)-2H-indazole-3-carboxamide]",Picorana CC50,[7],>10 µg/mL
same,EC50,Poliovirus 3; read-out: Poliovirus3 EC50,0.029 µg/mL
